Experimental data as given in patent US20190338251A1, “Skeletal Muscle Precursor Cells and Production Method for Skeletal Muscle Cells” (Takeda Pharmaceutical Company Limited, priority 2016, published 2019).

Assays:
Type in all cases: cell-based, human
[1] = tested on: 253G1 cells; assay: Study on reagent to be added: fluorescent immunostaining of induced myotube and skeletal muscle cells; details: for use of combined replacement reagents for induction: several reference reagents (CHIR, SB, DM, FSK) replaced at once; for use of one reagent instead of the reference reagent (SB or FSK) for induction / use of two reagents instead of SB and DM for induction: fibronectin-coated vessel (section 5-2); for use of one reagent instead of the reference reagent (SB or FSK) for induction / use of one reagent instead of the reference reagent (CHIR or SB) for induction: 1 μM A83-01 instead of SB; for use of one reagent instead of the reference reagent (SB or FSK) for induction: 50 μM dbcAMP instead of FSK; for use of one reagent instead of the reference reagent (CHIR or SB) for induction: 0.5 μM BIO or 10 μM 5B216763 instead of CHIR; for use of two reagents instead of SB and DM for induction: 1 μM A83-01 and 0.1 μM LDN193189
Experimental: (§1) According to Reference Example 1, 253G1 cells were plated over a Matrigel-coated culture vessel. Two days thereafter, the E8 medium was replaced with B-27 medium supplemented with 5 μM CHIR and 1% AA to start differentiation (the starting day of differentiation was defined as day 0 of differentiation).
On day 2 of differentiation, the medium was replaced with B-27 medium supplemented with 1% AA, 10 μM SB and 0.5 μM DM. On day 4 of differentiation, the medium was further replaced with B-27 medium supplemented with 1% AA and 10 μM FSK. The culture was continued until day 7 of differentiation.
On day 7 of differentiation, the medium was replaced with DMEM (high glucose) medium supplemented with 10 μM FSK, 5% StemSure Serum Replacement, 1% AA and 1% ITS-G. The culture was continued with the medium replaced every 2 to 3 days.
The cells (skeletal muscle precursor cells) on week 3 of differentiation were cryopreserved in the same way as the method described in Example 3. The cryopreserved cells were thawed, plated, and cultured for 2 days in the same way as the method described in Example 3. Then, the medium was replaced with DMEM (high glucose) medium supplemented with 10 μg/mL FGF2, 10 μM FSK, 1% AA, 5% StemSure Serum Replacement and 1% ITS-G. The culture was continued for 2 weeks with the medium replaced every 2 to 3 days.
The cells thus cultured for 2 weeks were fluorescently immunostained using an antibody recognizing myosin heavy chains (R&D Systems, Inc., clone No.: MF20), an antibody recognizing desmin (Abcam plc.) and Hoechst 33342 for nuclear staining (Dojindo Laboratories). As a result, multinuclear myotube cells costained with both the antibodies were confirmed (FIG. 5, left diagram).
On week 2 of culture, the medium was replaced with growth factor- and FSK-free DMEM (low glucose) medium supplemented with 1% AA, 5% StemSure Serum Replacement and 1% ITS-G, and the culture was continued with the medium replaced. On week 4 of culture, the cells were fluorescently immunostained using an antibody recognizing α-actinin (Sigma-Aldrich Co. LLC), an antibody recognizing dystrophin (Abcam plc.) and Hoechst 33342. As a result, multinuclear skeletal muscle cells were stained (FIG. 5, right diagram).
Various changes in conditions were studied with reference to the experiment described above. The frozen cells on weeks 2 and 4 of culture were similarly fluorescently immunostained and evaluated.
Cells were obtained in the same way as the method described in the preceding section “5-1” except that a culture vessel coated with fibronectin (Sigma-Aldrich Co. LLC) instead of Matrigel was used. After thawing, myotube cells (FIG. 6, left diagram) and skeletal muscle cells (FIG. 6, right diagram) were confirmed on weeks 2 and 4, respectively, of culture.

[2] = tested on: 253G1 cells; assay: Pan-mesodermal marker gene expression (real-time PCR) on day 2 of differentiation; details: CHIR 1 to 6 μM, ratio to undifferentiated iPS cells
Experimental: as §1, with “with 1 to 6” for “with 5”
(§2) On day 2 of differentiation, change in the expression of pan-mesodermal marker genes BRACHYURY and TBX6 was examined. The change in gene expression was analyzed by the following procedures: total RNA was prepared using RNeasy 96 Kit or RNeasy Mini Kit (Qiagen N.V.), and cDNA was then synthesized from the total RNA using reverse transcriptase (PrimeScript RT reagent kit, Takara Bio Inc.). The obtained cDNA was subjected to real-time PCR using a Taqman probe (Applied Biosystems, Inc.). A sample prepared from the 253G1 cells before the start of differentiation was used as a reference sample. The gene expression levels of BRACHYURY and TBX6 were calculated by the comparative Ct method.

[3] = tested on: 253G1 cells; assay: Somitic mesoderm marker gene expression on day 7 of differentiation; details: 2 to 4 μM CHIR days 0 to 2, then SB (and DM) days 2 to 4, then FSK days 4 to 7
Experimental: as §1, with “with 1 to 6” for “with 5”
as §2
On day 2 of differentiation, the medium was replaced with B-27 medium supplemented with 1% AA and 10 μM SB (and 0.3 to 1 μM DM). On day 4 of differentiation, the medium was further replaced with B-27 medium supplemented with 1% AA and 10 μM FSK. […]
On day 7 of differentiation, the expression levels of somitic mesoderm marker genes PAX3 and PAX7 were measured. […]

Row | Compound | induction of differentiation into skeletal muscle precursor cells ([1]; Matrigel (section 5-1), 50 μM dbcAMP instead of FSK from day 4 of differentiation) | use of combined replacement reagents for induction ([1]; Matrigel (section 5-1)) | use of one reagent instead of the reference reagent (SB or FSK) for induction [1] | use of one reagent instead of the reference reagent (CHIR or SB) for induction ([1]; Matrigel (section 5-1)) | BRACHYURY and TBX6 expression [2] | expression of somitic mesoderm marker genes PAX3 and PAX7 [3] | use of two reagents instead of SB and DM for induction [1]
1 | CCCC(=O)Nc1ncnc2c1ncn2[C@@H]1O[C@@H]2COP(=O)(O)O[C@H]2[C@H]1OC(=O)CCC [dbcAMP, dibutyryl cAMP] | it was possible to induce differentiation into skeletal muscle precursor cells | it was possible | it was possible | – | – | – | –
2 | 6-bromoindirubin-3-oxime [BIO] | – | it was possible | – | it was possible | – | – | –
3 | Cc1c[nH]c(-c2cnc(NCCNc3ccc(C#N)cn3)nc2-c2ccc(Cl)cc2Cl)n1 [CHIR, 6-[[2-[[4-(2,4-dichlorophenyl)-5-(4-methyl-1H-imidazol-2-yl)-2-pyrimidinyl]amino]ethyl]amino]nicotinonitrile] | – | – | – | – | increase in a CHIR concentration-dependent manner | high expression | –
4 | Cc1cccc(-c2nn(C(=S)Nc3ccccc3)cc2-c2ccnc3ccccc23)n1 [A83-01, 3-(6-methyl-2-pyridinyl)-N-phenyl-4-(4-quinolinyl)-1H-pyrazole-1-carbothioamide] | – | it was possible | it was possible | it was possible | – | – | it was possible
5 | Cl.c1ccc2c(-c3cnn4cc(-c5ccc(N6CCNCC6)cc5)cnc34)ccnc2c1 [LDN193189, 4-[6-(4-piperazin-1-yl-phenyl)-pyrazolo[1,5-α]pyrimidin-3-yl]-quinoline hydrochloride] | – | it was possible | – | – | – | – | it was possible
6 | Cn1cc(C2=C(c3ccc(Cl)cc3Cl)C(=O)NC2=O)c2ccccc21 [5B216763, 3-(2,4-dichlorophenyl)-4-(1-methyl-1H-indol-3-yl)-1H-pyrrole-2,5-dione] | – | it was possible | – | it was possible | – | – | –
